Test results reported in patent US20260007687A1, “A[…] EMULSION INJECTION AND METHOD FOR PREPARING SAME” (JIANGSU NHWA PHARMACEUTICAL CO., LTD, priority 2022, published 2026).

Experiments:
[1] = background statement; cited from earlier work
[2] = ED50 of alphaxalone (basis of the dose in the histamine test); details: in vivo
[3] = test system: histamine content in mouse plasma; test: Mouse histamine release: plasma histamine content (ELISA) 30 min after intravenous injection; details: mice
Method: Overall test method: the corresponding solution or formulation was prepared. Administration was performed by intravenous injection, and blood was collected 30 min after administration. After anticoagulation with EDTA, the blood was centrifuged to collect the plasma, and the histamine content in mouse plasma was measured with an ELISA kit.
Blank plasma: blood was directly collected from mice and centrifuged.
Normal saline: normal saline was injected at an administration volume of 5 mL/kg.
Blank fat emulsion (20% medium-long-chain fat emulsion): the administration volume was 5 mL/kg.
SBE-β-CD: the preparation method was: 0.7 mL of 13% SBE-β-CD+4.3 mL of normal saline, and the administration volume was 5 mL/kg. […] Cremophor EL: 0.7 mL of Cremophor EL+4.3 mL of normal saline, the concentration of Cremophor EL was 0.14 mL/mL, the dose was 5 mL/kg, and the dose of Cremophor EL was 0.7 mL/kg.
SBE-β-CD & Cremophor EL: 0.7 mL of 13% SBE-β-CD+0.7 mL of Cremophor EL+3.6 mL of normal saline, and the administration volume was 5 mL/kg.
The administration volume was 3.5 mL/kg, the dose was 7 mg/kg; the administration amount of castor oil was 0.245 mL/kg.

C[C@]12CC[C@@H](O)C[C@@H]1CC[C@H]1[C@@H]3CC[C@H](C(=O)CO)[C@@]3(C)CC(=O)[C@@H]12 [alphadolone]
potency of alphadolone relative to alphaxalone [1]: half

CC(=O)[C@H]1CC[C@H]2[C@@H]3CC[C@H]4C[C@H](O)CC[C@]4(C)[C@H]3C(=O)C[C@]12C [alphaxalone]
ED50 of alphaxalone [2]: about 3.5 mg/kg

sulfobutyl-β-cyclodextrin [SBE-β-CD]
Plasma histamine concentration [3]: 15.28 ± 2.33 ng/mL
